The results in this text go back to ChEMBL document CHEMBL1137869 (Bioorg Med Chem Lett, 2004).

Structures are written as SMILES.

In assay [1] the target is T1, Platelet-derived growth factor receptor beta (Homo sapiens, UniProt P09619). The experiment in a line: In vitro inhibition of Platelet derived growth factor receptor beta autophosphorylation in MG-63 cells with 45% human plasma. It counts as cell-based.
The target in assay [2] is T1, Platelet-derived growth factor receptor beta. The experiment in a line: In vitro inhibition of Platelet derived growth factor receptor beta autophosphorylation in MG-63 cells without plasma. It counts as cell-based.

Broadly, the IC50 is the concentration needed to halve the response being measured. Low readings indicate higher potency, high ones lower potency.

T1 sequence (P09619 whole entry): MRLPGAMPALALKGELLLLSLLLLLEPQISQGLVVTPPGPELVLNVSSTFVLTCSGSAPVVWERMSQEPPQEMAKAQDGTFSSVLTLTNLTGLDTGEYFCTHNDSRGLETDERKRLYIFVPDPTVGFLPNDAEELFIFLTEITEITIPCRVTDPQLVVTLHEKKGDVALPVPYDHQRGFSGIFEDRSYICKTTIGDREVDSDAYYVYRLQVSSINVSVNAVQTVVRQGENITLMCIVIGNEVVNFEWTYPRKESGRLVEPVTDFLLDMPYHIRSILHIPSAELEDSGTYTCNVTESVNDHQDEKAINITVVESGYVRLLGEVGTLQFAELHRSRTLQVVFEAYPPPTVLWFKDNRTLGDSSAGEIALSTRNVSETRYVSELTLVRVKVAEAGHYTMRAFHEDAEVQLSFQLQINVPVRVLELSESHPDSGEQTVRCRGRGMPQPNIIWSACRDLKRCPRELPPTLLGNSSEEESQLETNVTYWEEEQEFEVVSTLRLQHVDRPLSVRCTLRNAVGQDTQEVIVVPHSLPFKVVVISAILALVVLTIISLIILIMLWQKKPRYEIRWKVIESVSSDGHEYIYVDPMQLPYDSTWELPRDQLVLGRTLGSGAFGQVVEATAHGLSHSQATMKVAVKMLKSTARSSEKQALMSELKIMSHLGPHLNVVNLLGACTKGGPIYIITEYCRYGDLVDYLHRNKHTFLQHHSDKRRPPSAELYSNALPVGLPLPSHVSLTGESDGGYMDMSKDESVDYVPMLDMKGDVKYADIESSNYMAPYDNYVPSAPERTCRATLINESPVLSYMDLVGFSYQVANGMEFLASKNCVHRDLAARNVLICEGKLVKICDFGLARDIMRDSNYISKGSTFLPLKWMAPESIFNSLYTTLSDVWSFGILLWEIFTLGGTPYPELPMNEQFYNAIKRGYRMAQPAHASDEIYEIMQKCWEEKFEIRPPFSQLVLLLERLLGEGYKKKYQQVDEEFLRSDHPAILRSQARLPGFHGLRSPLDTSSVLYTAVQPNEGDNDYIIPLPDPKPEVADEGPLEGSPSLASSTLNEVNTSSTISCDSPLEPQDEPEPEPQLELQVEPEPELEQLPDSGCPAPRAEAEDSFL

As for `COc1cc2c(N3CCN(C(=S)NCc4ccc(-c5ccncc5)cc4)CC3)ncnc2cc1OCCN1CCCCC1`, the results for the half-maximal inhibitory concentration (IC50) in assay [1] and in assay [2] were 5040 nM and 9530 nM, respectively. As for `COc1cc2c(N3CCN(/C(S)=N\Cc4ccc5c(c4)OCO5)CC3)ncnc2cc1OCCN1CCCC1`, the half-inhibitory concentration (IC50) in assay [1] stood at 160 nM; in assay [2], 5 nM.

In the case of `COc1cc2c(N3CCN(/C(=N\Cc4ccc(C(C)C)cc4)NC#N)CC3)ncnc2cc1OCCCN1CCCCC1`, the values for the half-maximal inhibitory concentration (IC50) in assay [1] and in assay [2] were 970 nM and 920 nM, respectively.

Take `COc1cc2c(N3CCN(C(=S)NCc4ccc(-c5cccnc5)cc4)CC3)ncnc2cc1OCCN1CCCCC1`: the IC50 in assay [1] was 5190 nM; in assay [2] it was 14800 nM. The like results for `COc1cc2c(N3CCN(/C(S)=N\Cc4cccnc4)CC3)ncnc2cc1OCCCN1CCCCC1` were, in that order, 320 nM and 50 nM.

For `COc1cc2c(N3CCN(C(=S)NCc4ccc(-c5ccccc5)nc4)CC3)c(C#N)cnc2cc1OCCCN1CCCCC1`, the IC50 in assay [1] came to 100 nM; in assay [2], 10 nM. Consider `COc1cc2c(N3CCN(C(=S)Nc4ccc(-c5ccccn5)cc4)CC3)ncnc2cc1OCCCN1CCCCC1`, for which the IC50 in assay [1] stood at 100 nM; in assay [2] it was 220 nM. The matching figures for `COc1cc2c(N3CCN(C(=S)Nc4ccncc4)CC3)c(C#N)cnc2cc1OCCCN1CCCCC1`: 130 nM and 240 nM. Take `COc1cc2c(N3CCN(C(=S)NCc4ccncc4)CC3)ncnc2cc1OCCCN1CCCCC1`: the concentration for half-maximal inhibition (IC50) in assay [1] is 2450 nM; in assay [2], 13400 nM. Turning to `COc1cc2c(N3CCN(C(=S)NCc4ccc(-c5ccccn5)cc4)CC3)ncnc2cc1OCCN1CCCCC1`, the IC50 in assay [1] stood at 1490 nM; in assay [2], 2130 nM. On to `COc1cc2c(N3CCN(C(=S)NCc4csc(C)n4)CC3)ncnc2cc1OCCCN1CCCCC1`, for which the 50% inhibitory concentration (IC50) was 450 nM in assay [1] and 630 nM in assay [2]. For `COc1cc2c(N3CCN(C(=S)NCc4cnc(C)cn4)CC3)ncnc2cc1OCCN1CCOCC1`, the concentration for half-maximal inhibition (IC50) was 230 nM in assay [1] and 1360 nM in assay [2]. On to `COc1cc2c(N3CCN(/C(S)=N\Cc4ccc(-c5ccccc5)nc4)CC3)ncnc2cc1OCCCN1CCCCC1`, for which the values for the IC50 in assay [1] and in assay [2] were 130 nM and 20 nM, respectively. With `COc1cc2c(N3CCN(/C(S)=N\c4ccc(C#N)cc4)CC3)c(C#N)cnc2cc1OCCCN1CCCCC1`, the half-inhibitory concentration (IC50) was found to be 120 nM in assay [1] and 5 nM in assay [2]. Turning to `COc1cc2c(N3CCN(/C(S)=N\c4ccc(-c5ccccn5)cc4)CC3)c(C#N)cnc2cc1OCCCN1CCCCC1`, the half-maximal inhibitory concentration (IC50) in assay [1] was 130 nM; in assay [2], 220 nM. The matching figures for `COc1cc2c(N3CCN(/C(S)=N\c4ccc(Br)cc4)CC3)ncnc2cc1OCCN1CCCCC1`: 390 nM and 1010 nM.

Turning to `COc1cc2c(N3CCN(/C(S)=N\Cc4ccc5c(c4)OCO5)CC3)ncnc2cc1OCCN1CCOCC1`, the results for the IC50 in assay [1] and in assay [2] were 260 nM and 100 nM, respectively. The like results for `COc1cc2c(N3CCN(/C(S)=N\Cc4ccc(C(F)(F)F)nc4)CC3)ncnc2cc1OCCCN1CCOCC1` were, in that order, 50 nM and 5 nM. Take `COc1cc2c(N3CCN(C(=S)NCc4ccc(C(F)(F)F)nc4)CC3)ncnc2cc1OCCCN1CCCCC1`: the results for the IC50 in assay [1] and in assay [2] were 60 nM and 30 nM, respectively. As to `COc1cc2c(N3CCN(C(=S)NCc4csc(-c5ccc(C(F)(F)F)cc5)n4)CC3)ncnc2cc1OCCCN1CCCCC1`, the values for the IC50 in assay [1] and in assay [2] were 4470 nM and 3090 nM, respectively. The like results for `COc1cc2c(N3CCN(/C(S)=N\c4ccc(-c5ccccc5)nc4)CC3)c(C#N)cnc2cc1OCCCN1CCCCC1` were, in that order, 280 nM and 150 nM.

As for `COc1cc2c(N3CCN(/C(S)=N\Cc4ccccn4)CC3)ncnc2cc1OCCN1CCCCC1`, the IC50 in assay [2] is 4090 nM. Take `COc1cc2c(N3CCN(C(=S)Nc4ccc(-c5ccccc5)cn4)CC3)ncnc2cc1OCCCN1CCCCC1`: the IC50 in assay [1] was 550 nM; in assay [2], 1980 nM. With `COc1cc2c(N3CCN(C(=S)NCc4ccc(Cl)nc4)CC3)ncnc2cc1OCCCN1CCCCC1`, the IC50 is 60 nM in assay [1] and 20 nM in assay [2].
